Data from ChEMBL document CHEMBL1122261, “Synthesis of three potential inhibitors of leukotriene biosynthesis” (1983).

How the values were obtained:
Format in all cases: functional
[1] = species: Homo sapiens; test: In vitro effect on lipoxygenase activity in intact human polymorphonuclear leukocytes at a concen of 10 e-4 M on formation of 5-HETE
[2] = species: Homo sapiens; test: In vitro effect on lipoxygenase activity in intact human polymorphonuclear leukocytes at a concentration of 10 e-4 M on formation of Leukotriene B4 (LTB4)
[3] = species: Homo sapiens; test: In vitro effect on lipoxygenase activity in intact human polymorphonuclear leukocytes at a concentration of 10 e-4 M on formation of 5-HETE

Compound | Effect [1] | Effect [2] | Effect [3]
CCCCC/C=C\C/C=C\C/C=C\Cc1ccccc1CCCC(=O)O | -94% | -91% | 
CCCCC/C=C\C/C=C\C(C)(C)/C=C\C/C=C\CCCC(=O)O | 60% | 40% | 
CCCCC/C=C\C/C=C\C/C=C\C(C)(C)/C=C\CCCC(=O)O |  | 19% | 29%
